Tests used:
Details in all cases: Table 2; incubation time 10 min
Human HDAC4 = biological target: T1, Human HDAC4 (Homo sapiens, UniProt P56524); assay: Biochemical HDAC enzymatic assay, HDAC4
T1 construct: amino acids 627-1085 with a N-terminal GST tag; GST tag (N); made in house; host or cells: baculovirus expression system
Experimental: (§1) Incubation time for HDAC1/2 is 120 min, and 10 min for other HDACs.
Human HDAC4 (GenBank Accession No. NM_006037), amino acids 627-1085 with a N-terminal GST tag, MW=75.2 kDa, was expressed in a baculovirus expression system.
(§2) • I. Compound handling: Testing compounds were dissolved in 100% DMSO to a specific concentration. The serial dilution was conducted by epMotion 5070 in DMSO. • II. HDAC reaction buffer: 50 mM Tris-HCl, pH8.0, 137 mM NaCl, 2.7 mM KCl, and 1 mM MgCl2, Added fresh: 1 mg/ml BSA, 1% DMSO. • III. […] Delivered 2× Substrate Mixture (Fluorogenic HDAC Substrate and co-factor ([…] of Nicotinamide adenine dinucleotide (NAD^+) in all Sirt assay) in all reaction wells to initiate the reaction. Spin and shake. • d. Incubated for 1-2 hr. at 30° C. with seal. • e. Added Developer with Trichostatin A (or TMP269 or NAD^+) to stop the reaction and to generate fluorescent color. • f. Fluorescence was read (excitatory, 360; emission, 460) using the EnVision Multilabel Plate Reader (Perkin Elmer) • g. Endpoint reading was taken for analysis after the development reaches plateau. • V. Data Analysis: The percentages of enzyme activity (relative to DMSO controls) and IC50 values were calculated using the GraphPad Prism 4 program based on a sigmoidal dose-response equation. […]

Human HDAC5 = biological target: T2, Human HDAC5 (Homo sapiens, UniProt Q9UQL6); assay: Biochemical HDAC enzymatic assay, HDAC5
T2 construct: full-length with an N-terminal GST tag, MW=150 kDa; GST tag (N); made in house; host or cells: baculovirus expression system
Experimental: as §1
Human HDAC5 (GenBank Accession No. NM_005474), full-length with an N-terminal GST tag, MW=150 kDa, was expressed in a baculovirus expression system.
as §2

Human HDAC11 = biological target: T3, Human HDAC11 (Homo sapiens, UniProt Q96DB2); assay: Biochemical HDAC enzymatic assay, HDAC11
T3 construct: Human HDAC11 (full length); GST tag (N); made in house; host or cells: baculovirus expression system
T3 sequence (Q96DB2 1-347): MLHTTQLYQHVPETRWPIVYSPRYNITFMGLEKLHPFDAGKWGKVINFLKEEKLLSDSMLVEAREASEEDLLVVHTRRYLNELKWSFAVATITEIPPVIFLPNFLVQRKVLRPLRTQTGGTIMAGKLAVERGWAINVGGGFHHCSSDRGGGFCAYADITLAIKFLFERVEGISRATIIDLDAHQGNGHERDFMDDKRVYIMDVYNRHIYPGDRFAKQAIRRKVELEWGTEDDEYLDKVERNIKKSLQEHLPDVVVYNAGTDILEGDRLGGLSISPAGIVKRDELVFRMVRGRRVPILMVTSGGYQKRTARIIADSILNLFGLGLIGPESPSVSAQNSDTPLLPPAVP
Experimental: as §1
Human HDAC11 (full length) (GenBank Accession No. NM_024827) with a N-terminal GST tag, MW=66 kDa, was expressed in a baculovirus expression system.
as §2

Human HDAC10 = biological target: T4, Human HDAC10 (Homo sapiens, UniProt Q969S8); assay: Biochemical HDAC enzymatic assay, HDAC10
T4 construct: Human HDAC10 (a.a. 1-481); GST tag (N); His tag (C); made in house; host or cells: baculovirus expression system
T4 sequence (Q969S8 1-481): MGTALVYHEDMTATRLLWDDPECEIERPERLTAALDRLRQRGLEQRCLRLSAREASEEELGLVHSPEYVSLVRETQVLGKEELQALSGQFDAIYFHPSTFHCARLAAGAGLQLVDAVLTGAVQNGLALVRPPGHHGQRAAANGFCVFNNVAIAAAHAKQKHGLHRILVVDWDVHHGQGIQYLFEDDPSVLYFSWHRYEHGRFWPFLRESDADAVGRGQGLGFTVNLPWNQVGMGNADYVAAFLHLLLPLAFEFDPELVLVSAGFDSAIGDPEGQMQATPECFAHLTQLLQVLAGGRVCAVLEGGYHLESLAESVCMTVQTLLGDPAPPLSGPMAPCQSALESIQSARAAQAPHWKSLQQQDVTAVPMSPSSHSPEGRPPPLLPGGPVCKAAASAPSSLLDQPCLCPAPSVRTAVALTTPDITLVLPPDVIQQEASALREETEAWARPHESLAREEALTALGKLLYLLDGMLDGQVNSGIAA
Experimental: as §1
Human HDAC10 (a.a. 1-481), GenBank Accession No. NM_032019 with a N-terminal GST tag and a C-terminal His tag, MW=78 kDa, was expressed in a baculovirus expression system.
as §2

T2 sequence (Q9UQL6 whole entry): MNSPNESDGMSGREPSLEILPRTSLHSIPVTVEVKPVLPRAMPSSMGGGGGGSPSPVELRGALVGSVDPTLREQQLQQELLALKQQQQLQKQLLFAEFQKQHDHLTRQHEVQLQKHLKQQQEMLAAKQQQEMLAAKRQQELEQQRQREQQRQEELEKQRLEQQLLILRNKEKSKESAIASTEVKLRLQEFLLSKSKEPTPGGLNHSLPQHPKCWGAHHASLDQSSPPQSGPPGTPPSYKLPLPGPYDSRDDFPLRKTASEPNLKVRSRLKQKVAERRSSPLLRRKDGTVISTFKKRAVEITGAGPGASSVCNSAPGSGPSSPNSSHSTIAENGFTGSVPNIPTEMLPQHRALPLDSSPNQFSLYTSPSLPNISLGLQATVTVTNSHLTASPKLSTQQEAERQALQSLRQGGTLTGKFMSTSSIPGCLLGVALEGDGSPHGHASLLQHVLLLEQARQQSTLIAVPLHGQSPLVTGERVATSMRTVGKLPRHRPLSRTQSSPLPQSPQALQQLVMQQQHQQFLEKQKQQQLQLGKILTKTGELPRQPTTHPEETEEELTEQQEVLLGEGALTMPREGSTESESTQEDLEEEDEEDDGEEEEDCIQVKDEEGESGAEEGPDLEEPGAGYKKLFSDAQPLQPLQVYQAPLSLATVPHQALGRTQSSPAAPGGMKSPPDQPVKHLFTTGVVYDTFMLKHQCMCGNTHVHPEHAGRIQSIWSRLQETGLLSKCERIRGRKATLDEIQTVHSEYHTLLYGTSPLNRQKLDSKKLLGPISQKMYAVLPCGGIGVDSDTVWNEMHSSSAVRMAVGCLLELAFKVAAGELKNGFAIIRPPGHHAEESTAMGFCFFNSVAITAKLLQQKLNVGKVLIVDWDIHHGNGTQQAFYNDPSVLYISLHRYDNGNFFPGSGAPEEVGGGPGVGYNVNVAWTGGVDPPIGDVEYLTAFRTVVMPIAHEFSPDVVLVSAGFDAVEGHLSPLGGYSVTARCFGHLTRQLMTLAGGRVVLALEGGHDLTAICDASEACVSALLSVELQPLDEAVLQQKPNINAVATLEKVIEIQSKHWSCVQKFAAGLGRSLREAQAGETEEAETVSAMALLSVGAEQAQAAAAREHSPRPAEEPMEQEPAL
T1 sequence (P56524 627-1084 limits assumed): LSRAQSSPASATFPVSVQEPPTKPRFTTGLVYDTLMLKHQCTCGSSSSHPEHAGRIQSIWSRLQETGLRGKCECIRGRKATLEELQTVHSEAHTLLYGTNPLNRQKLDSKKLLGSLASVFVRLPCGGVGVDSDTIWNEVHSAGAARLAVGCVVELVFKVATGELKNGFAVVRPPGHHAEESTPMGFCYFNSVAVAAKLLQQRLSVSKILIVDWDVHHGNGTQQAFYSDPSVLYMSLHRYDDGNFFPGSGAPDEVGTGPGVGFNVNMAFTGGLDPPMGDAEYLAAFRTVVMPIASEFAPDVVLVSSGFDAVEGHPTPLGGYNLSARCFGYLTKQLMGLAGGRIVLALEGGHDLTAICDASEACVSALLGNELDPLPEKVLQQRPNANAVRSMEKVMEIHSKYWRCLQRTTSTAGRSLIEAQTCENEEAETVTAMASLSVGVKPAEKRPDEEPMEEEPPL

Row | SMILES | IC50 (Human HDAC4) | IC50 (Human HDAC5) | IC50 (Human HDAC11) | IC50 (Human HDAC10)
1 | CN(C)C(=O)N1CCC2(CC1)c1ccccc1C(=O)N2Cc1ccc(C(=O)NO)cc1 [Compound Example 11, 2-(4-(hydroxycarbamoyl)benzyl)-N,N-dimethyl-3-oxospiro[isoindoline-1,4′-piperidine]-1′-carboxamide] | 5 µM | 1.55 µM | 4.1 µM | > 10 µM
2 | O=C(NO)c1ccc(CN2C(=O)c3ccccc3C23CCN(C2CC2)CC3)cc1 [Compound Example 12, 4-((1′-cyclopropyl-3-oxospiro[isoindoline-1,4′-piperidin]-2-yl)methyl)-N-hydroxybenzamide] | > 10 µM | > 10 µM | 3.6 µM | > 10 µM

Reference: patent US11155550B2, “Histone deacetylase inhibitors and methods of use thereof” (Reaction Biology Corp., priority 2018, dated 2021)
